Laboratory results from US11731972B2, “Spiro compounds as glycosidase inhibitors” (Asceneuron SA, priority 2018, dated 2023).
pIC50: −log10 of the molar value.

These compounds were tested against His-Tagged hOGA (human O-GlcNAcase) (Homo sapiens (Human), UniProt O60502) (assay: Human O-GlcNAcase enzyme inhibition assay (Example B01)). Conditions: OGA enzyme inhibition assay; FL-GlcNAc substrate, 60 min, room temperature, pH 6.5.
Chain of His-Tagged hOGA (human O-GlcNAcase) (O60502 whole entry): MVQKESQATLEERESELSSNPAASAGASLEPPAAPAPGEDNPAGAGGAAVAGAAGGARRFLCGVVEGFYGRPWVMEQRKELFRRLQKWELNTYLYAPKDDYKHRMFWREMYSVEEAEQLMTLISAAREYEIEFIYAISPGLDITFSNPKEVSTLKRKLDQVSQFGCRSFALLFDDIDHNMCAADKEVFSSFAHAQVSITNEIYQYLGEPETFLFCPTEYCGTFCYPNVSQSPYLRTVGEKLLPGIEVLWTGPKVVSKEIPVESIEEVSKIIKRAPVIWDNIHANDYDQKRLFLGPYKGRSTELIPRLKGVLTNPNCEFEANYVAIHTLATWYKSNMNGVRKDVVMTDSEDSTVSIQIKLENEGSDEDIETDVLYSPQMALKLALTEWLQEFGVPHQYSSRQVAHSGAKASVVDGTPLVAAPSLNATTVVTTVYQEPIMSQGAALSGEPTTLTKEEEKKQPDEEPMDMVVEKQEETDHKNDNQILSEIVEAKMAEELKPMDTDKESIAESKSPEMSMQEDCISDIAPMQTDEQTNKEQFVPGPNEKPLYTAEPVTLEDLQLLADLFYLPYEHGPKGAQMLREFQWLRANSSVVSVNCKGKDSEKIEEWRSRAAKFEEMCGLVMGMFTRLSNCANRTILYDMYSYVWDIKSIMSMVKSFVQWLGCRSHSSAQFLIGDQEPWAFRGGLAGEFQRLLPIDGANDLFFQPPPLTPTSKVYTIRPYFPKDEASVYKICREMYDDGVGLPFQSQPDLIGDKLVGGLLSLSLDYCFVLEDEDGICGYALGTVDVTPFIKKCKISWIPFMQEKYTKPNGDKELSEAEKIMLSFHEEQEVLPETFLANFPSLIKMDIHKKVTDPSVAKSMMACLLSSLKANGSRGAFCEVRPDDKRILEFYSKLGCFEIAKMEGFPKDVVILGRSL
Assay type: biochemical
Experimental: Example B01: Human O-GlcNAcase Enzyme Inhibition Assay
5 μl of the appropriate concentration of a solution of inhibitor in McIlvaine's Buffer (pH 6.5) in 2% DMSO (for a dose response curve calculation) is added into each well of a 384-well plate (Greiner, 781900). Then, 20 nM of His-Tagged hOGA and 10 μM of FL-GlcNAc (Fluorescein mono-beta-D-(2-deoxy-2-N-acetyl) glucopyranoside; Marker Gene Technologies Inc, M1485) were added to the 384-well plate for a final volume of 20 μl. After incubation for 60 min at room temperature, the reaction was terminated by the addition of 10 μL of stop buffer (200 mM glycine, pH 10.75). The level of fluorescence (λexc 485 nm; (λemm 520 nm) was read on a PHERAstar machine. The amount of fluorescence measured was plotted against the concentration of inhibitor to produce a sigmoidal dose response curve to calculate an IC50. All individual data was corrected by subtraction of the background (Thiamet 3 uM=100% inhibition) whilst 0.5% DMSO was considered as the control value (no inhibition).
In the case of `CC(c1ccc2scnc2c1)N1CCC2(CC1)CC(=O)N(c1ncccn1)C2` (racemic) [Example 73], the pIC50 was 5.00 to 6.00. For `COCCN1C(=O)NC2(CCN(C(C)c3ccc4c(c3)OCC4)CC2)C1=O` (racemic) [Example 6, 8-(1-(2,3-dihydrobenzofuran-6-yl)ethyl)-3-(2-methoxyethyl)-1,3,8-triazaspiro[4.5]decane-2,4-dione], the pIC50 was 6.70 to 7.30. Compound `CC(c1ccc2scnc2c1)N1CCC2(CCN(c3ccc(C#N)cc3)C2=O)CC1` (racemic) [Example 27, 4-(8-(1-(benzo[d]thiazol-5-yl)ethyl)-1-oxo-2,8-diazaspiro[4.5]decan-2-yl)benzonitrile] has a pIC50 of 6.00 to 6.70. With `CC(c1ccc2scnc2c1)N1CCC2(CCN(c3ccc(C#N)cc3)C2)CC1` (racemic) [Example 28, 4-(8-(1-(benzo[d]thiazol-5-yl)ethyl)-2,8-diazaspiro[4.5]decan-2-yl) benzonitrile] the pIC50 was 6.00 to 6.70. With `CC(c1ccc2c(c1)OCC2)N1CCC2(CC1)C(=O)Nc1ccccc12` (racemic) [Example 21, 1′-(1-(2,3-dihydrobenzofuran-6-yl)ethyl)spiro[indoline-3,4′-piperidin]-2-one] the pIC50 was 6.00 to 6.70. `CC(=O)Nc1ncc(CN2CCC3(CC2)NC(=O)N(Cc2ccc(C)nc2)C3=O)s1` (racemic) [IA3] was tested, and the pIC50 was 6.70 to 7.30. In the case of `CC(c1ccc2c(c1)OCC2)N1CCC2(CC1)NC(=O)N(C)C2=O` (racemic) [Example 2, 8-(1-(2,3-dihydrobenzofuran-6-yl)ethyl)-3-methyl-1,3,8-triazaspiro[4.5]decane-2,4-dione], the pIC50 was 6.00 to 6.70. Work on `CC(c1ccc2c(c1)OCC2)N1CCC2(CC1)C(=O)N(c1ccc(C#N)cc1)C(=O)N2C` (racemic) [Example 76] yielded a pIC50 of 5.00 to 6.00. In the case of `CC(c1ccc2scnc2c1)N1CCC2(CC1)CN(c1ccc(F)cc1)C(=O)N2` (racemic) [Example 36, 8-(1-(benzo[d]thiazol-5-yl)ethyl)-3-(4-fluorophenyl)-1,3,8-triazaspiro[4.5]decan-2-one], the pIC50 was 6.00 to 6.70. `CC(=O)Nc1ncc(CN2CCC3(CC2)CC(=O)N(c2ccc(C#N)cc2)C3)s1` (racemic) [IA7] showed a pIC50 of 6.00 to 6.70. For `Cc1cc(N2CC3(CCN(C(C)c4ccc5c(c4)OCC5)CC3)CC2=O)n2nccc2n1` (racemic) [Example 16, 8-(1-(2,3-dihydrobenzofuran-6-yl)ethyl)-2-(5-methylpyrazolo[1,5-a]pyrimidin-7-yl)-2,8-diazaspiro[4.5]decan-3-one], the pIC50 was 5.00 to 6.00. With `CC(c1ccc2scnc2c1)N1CCC2(CC1)NC(=O)N(c1ccc(Cl)cc1)C2=O` (racemic) [Example 65] the pIC50 was 6.70 to 7.30. With `CC(c1ccc2c(c1)OCC2)N1CCC2(CC1)CC(=O)N(c1ccc(C#N)cc1)C2` (racemic) [Example 19, 4-(8-(1-(2,3-dihydrobenzofuran-6-yl)ethyl)-3-oxo-2,8-diazaspiro[4.5]decan-2-yl)benzonitrile] the pIC50 was 5.00 to 6.00. `CC(=O)Nc1ncc(CN2CCC3(CC2)NC(=O)N(Cc2cc(C)nc(C)c2)C3=O)s1` (racemic) [IA4] showed a pIC50 of over 7.30. Work on `CC(c1ccc2scnc2c1)N1CCC2(CCN(Cc3ccc(C#N)cc3)C2=O)CC1` (racemic) [Example 26, 4-((8-(1-(benzo[d]thiazol-5-yl)ethyl)-1-oxo-2,8-diazaspiro[4.5]decan-2-yl)methyl)benzonitrile] yielded a pIC50 of 6.00 to 6.70. Work on `CC(c1ccc2scnc2c1)N1CCC2(CC1)NC(=O)N(c1ccc(F)cc1)C2=O` (racemic) [Example 63] yielded a pIC50 of 6.70 to 7.30. `CC(c1ccc2scnc2c1)N1CCC2(CC1)CC(=O)N(c1ccc(C#N)cc1)C2` (racemic) [Example 15, 4-(8-(1-(benzo[d]thiazol-5-yl)ethyl)-3-oxo-2,8-diazaspiro[4.5]decan-2-yl)benzonitrile] showed a pIC50 of 5.00 to 6.00. For `CC(c1ccc2scnc2c1)N1CCC2(CC1)C(=O)N(c1ccc(C#N)cc1)c1ccccc12` (racemic) [Example 25, 4-(1′-(1-(benzo[d]thiazol-5-yl)ethyl)-2-oxospiro[indoline-3,4′-piperidin]-1-yl)benzonitrile], the pIC50 was 6.70 to 7.30. In the case of `COCCN1C(=O)NC2(CCN(C(C)c3ccc4scnc4c3)CC2)C1=O` (racemic) [Example 7, 8-(1-(benzo[d]thiazol-5-yl)ethyl)-3-(2-methoxyethyl)-1,3,8-triazaspiro[4.5]decane-2,4-dione], the pIC50 was 6.00 to 6.70. Compound `CC(c1ccc2scnc2c1)N1CCC2(CC1)CC(=O)N(Cc1ccc(S(C)(=O)=O)cc1)C2` (racemic) [Example 17, 8-(1-(benzo[d]thiazol-5-yl)ethyl)-2-(4-(methylsulfonyl)benzyl)-2,8-diazaspiro[4.5]decan-3-one] has a pIC50 of 5.00 to 6.00. `CC(c1ccc2scnc2c1)N1CCC2(CC1)CN(c1ccc(C#N)cc1)C(=O)N2` (racemic) [Example 34, 4-(8-(1-(benzo[d]thiazol-5-yl)ethyl)-2-oxo-1,3,8-triazaspiro[4.5]decan-3-yl)benzonitrile] showed a pIC50 of 6.70 to 7.30. `Cc1cc(N2CCC3(CCN(C(C)c4ccc5scnc5c4)CC3)C2)n2nccc2n1` (racemic) [Example 14, 5-(1-(2-(5-methylpyrazolo[1,5-a]pyrimidin-7-yl)-2,8-diazaspiro[4.5]decan-8-yl)ethyl)benzo[d]thiazole] gave a pIC50 of 6.00 to 6.70.
